Laboratory results from patent publication US20090087440A1, “Methods for Treating Cancer” (SCHERING CORPORATION, priority 2001, published 2009).
“Also recorded” adds a separate entry of the source.

Columns and labels:
[1] = test system: C26-6CK tumor-infiltrating dendritic cells; experiment: IL-12 p70 and TNFα ELISA in supernatants of activated C26-6CK TIDC (Example II); assay type: cell-based, mouse
B16F0 melanoma tumor = experiment: Therapeutic effect in the B16F0 melanoma tumor model (Example VII)
Procedure: • 5×10^4 B16F0 tumor cells were implanted s.c. at Day 0 in groups of seven 8 week-old female C57BL/6 mice and treated as follow: • 5 μg of CpG 1668 were injected intra-tumorally at Day 7, 14, and 21. • 250 μg anti-IL10R purified antibody were injected intraperitoneally at Day 7, 14, and 21. Control antibody was purified GL113 antibody.
(§1) Tumor development was assessed three times a week by palpation and tumors measured using a caliper with tumor volume=I^2×L×0.4, I being the small diameter and L the large diameter. Mice were sacrificed when tumors exceeded 1500 mm^3 or for humane criteria.

[2] = test system: C26-6CK tumor-infiltrating dendritic cells; experiment: Mixed leukocyte reaction with activated C26-6CK TIDC (Example III); assay type: cell-based, mouse; settings: overnight activation, 5 days with allogeneic T cells
C26 tumor = experiment: Therapeutic effect in the C26 tumor model (Example VI); assay type: in vivo, BALB/c mice
Text: Control antibody was purified GL113 antibody.

C26-6CK tumor [3] = experiment: Therapeutic effect of CpG 1668+indomethacin in the C26-6CK tumor model (Example X); assay type: in vivo, BALB/c mice; settings: C26-6CK s.c.; 5 μg CpG 1668 intra-tumorally Day 7, 14, 21; indomethacin 5 μg/ml in drinking water day 5 to 28
C26-6CK tumor [4] = experiment: Therapeutic effect in the C26-6CK tumor model (Example V)
Procedure: • 1×10^5 C26-6CK tumor cells were implanted s.c. at Day 0 in groups of seven 8 week-old female BALB/c mice and treated as follow: • 10 μg of CpG 1668 were injected peri- (when tumor too small) or intratumorally at Day 7, 14, and 21. • 250 μg anti-IL10R purified antibody were injected intraperitoneally twice a week starting at Day 7 (stop Day 24).
as §1

[5] = test system: C26-6CK tumor-infiltrating dendritic cells; experiment: Activation of C26-6CK tumor-infiltrating DC with LPS, IFNγ and anti-CD40, compared with bone marrow-derived DC (Example I); assay type: cell-based, mouse
Bone marrow-derived DC = experiment: Activation of bone marrow-derived DC cultured with C26 tumor supernatant (Example IX); assay type: cell-based, mouse; settings: 10% v/v supernatant, indomethacin 1 μg/ml during supernatant preparation, anti-IL10R 10 μg/ml
Procedure: Bone marrow-derived DCs were obtained by culture of bone marrow progenitors with GM-CSF and TNFα for 5 days in the presence or absence of 10% v/v of a supernatant from C26 tumors. To prepare tumor supernatant, 0.5 cm C26 tumors grown subcutaneously in BALB/c mice were excised and minced, then cultured for 48 hours in 10 ml DMEM. The resulting supernatant was filtered at 0.2 μm and frozen before use. This supernatant contained 0.25 ng/ml IL-10 and 50 ng/ml PGE2, as determined by specific ELISA (R&D Systems). In order to inhibit PGE2 synthesis in the supernanant, the inhibitor of cyclo-oxygenase indomethacin (Sigma) was added at 1 μg/ml during the 48 h culture.
After 5 days, bone-marrow DC were activated with different combinations of optimal doses of LPS, IFNγ and anti-CD40 antibody in the presence or absence of 10 μg/ml anti-IL10R antibody. The activation of DC was measured by their expression of the co-stimulatory molecules CD40 and CD86 by FACS as well as by the production of IL-12 as detected by intra-cellular staining.

Row | Molecule | IL-12 p70 production in culture supernatants (ELISA) ([1]; C26-6CK TIDC, GM-CSF 10 ng/ml, 24 h, CpG 1668 5 μg/ml, anti-IL10R 10 μg/ml) | activating tumor-infiltrating dendritic cells ([1]; Examples II and III) | overall anti-tumor effect (B16F0 melanoma tumor) | MLR stimulatory capacity of tumor-infiltrating DC (thymidine incorporation) [2] | overall anti-tumor effect (C26 tumor) | mice that did not develop tumor (C26-6CK tumor [3]) | mice that did not develop a tumor (C26-6CK tumor [4]; C26-6CK s.c., 10 μg CpG 1668 peri- or intratumorally Day 7, 14, 21) | mean volume of tumors versus control group (C26-6CK tumor [4]; C26-6CK s.c., after three weeks) | overall anti-tumor effect (C26-6CK tumor [4]; C26-6CK tumor model) | response of tumor-infiltrating DC to stimulation (co-stimulatory molecules, MLR, IL-12 and TNFα) [5] | relief of the inhibition of DC activation by C26 tumor supernatant (CD40, CD86, IL-12 expression) (Bone marrow-derived DC)
1 | CpG 1668: TLR-9 ligand in the mouse, sequence TCC-ATG-ACG-TTC-CTG-ATG-CT (SEQ ID NO: 5), MWG Biotech (TCCATGACGTTCCTGATGCT; DNA, all phosphorothioate, methylation of C not given here) | does not induce | marginal effect | marginal effect | minimally enhanced | marginal effect | 1/7 | 1/7 | smaller than in the control group | minor effect; also recorded: marginal effect | – | –
2 | IFNγ: cytokine IFNγ (R&D Systems) | – | – | – | – | – | – | – | – | – | did not respond | –
3 | COc1ccc2c(c1)c(CC(=O)O)c(C)n2C(=O)c1ccc(Cl)cc1 [indomethacin] | – | – | – | – | – | 1/7 | – | – | – | – | relieved partially
